These results are taken from patent publication US12692223B2, “Phenyl-sulfamoyl-benzoic acid derivatives as ERAP1-modulators” (GREY WOLF THERAPEUTICS LIMITED, priority 2021, dated 2026).

A value given as a limit tells only on which side of the number the result lay.

T1 sequence (Q9NZ08 37-941): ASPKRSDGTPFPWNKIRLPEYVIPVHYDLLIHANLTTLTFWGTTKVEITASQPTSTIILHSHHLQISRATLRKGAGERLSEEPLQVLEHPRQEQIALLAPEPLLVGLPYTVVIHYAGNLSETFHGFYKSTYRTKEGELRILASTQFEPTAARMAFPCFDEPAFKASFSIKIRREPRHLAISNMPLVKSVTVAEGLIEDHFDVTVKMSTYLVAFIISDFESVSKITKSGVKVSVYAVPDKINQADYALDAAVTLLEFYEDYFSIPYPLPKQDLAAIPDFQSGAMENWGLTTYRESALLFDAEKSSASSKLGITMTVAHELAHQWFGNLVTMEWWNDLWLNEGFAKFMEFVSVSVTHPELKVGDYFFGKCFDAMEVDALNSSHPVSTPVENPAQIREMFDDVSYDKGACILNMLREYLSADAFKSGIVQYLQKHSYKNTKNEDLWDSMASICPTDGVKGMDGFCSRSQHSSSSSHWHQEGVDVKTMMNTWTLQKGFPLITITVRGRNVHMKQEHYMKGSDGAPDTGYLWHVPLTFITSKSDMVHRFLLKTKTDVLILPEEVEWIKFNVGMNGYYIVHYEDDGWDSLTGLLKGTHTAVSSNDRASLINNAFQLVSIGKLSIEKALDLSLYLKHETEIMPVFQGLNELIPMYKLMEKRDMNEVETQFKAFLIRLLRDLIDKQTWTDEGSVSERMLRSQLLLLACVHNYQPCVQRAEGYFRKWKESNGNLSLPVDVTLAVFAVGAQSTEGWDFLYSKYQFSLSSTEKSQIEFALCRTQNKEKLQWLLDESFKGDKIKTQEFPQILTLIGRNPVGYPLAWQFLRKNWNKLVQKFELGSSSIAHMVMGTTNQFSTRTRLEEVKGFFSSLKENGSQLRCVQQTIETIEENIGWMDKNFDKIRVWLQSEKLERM

The assay has as its target T1, ERAP1 (Homo sapiens, UniProt Q9NZ08).
T1 construct: Purified ERAP1(37-941)-10His (ERAP1)
In words: ERAP1 mediated hydrolysis of an amide substrate measured in a biochemical system (10-mer inhibition assay). The following applies: purified ERAP1(37-941)-10His; 10-mer substrate; 23° C. for 1 h; excitation 279 nm, emission 355 nm; read-out: IC50 vs Decapeptide WRVYEKC(Dnp)ALK-acid (where Dnp is Dinitrophenyl maleimide) (10-mer). The procedure, abridged:
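Purified ERAP1(37-941)-10His in 25 mM Bis-tris propane, 0.05% HPMC, pH 7.75, with compound, then 100 μM 10-mer WRVYEKC(Dnp)ALK or 240 μM L-AMC added (stock concentrations before 1:1 mixing), 1 h at 23 °C. Fluorescence read at ex 279/em 355 nm (10-mer) or ex 365/em 442 nm (L-AMC); IC50 from 4-parameter fit.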
On to `Cc1oncc1-c1cc(NS(=O)(=O)c2cc(C(=O)O)ccc2C2CC2)c(OC2CCCC2)cc1F` [Example 24, 3-(N-(2-(cyclopentyloxy)-4-fluoro-5-(5-methylisoxazol-4-yl)phenyl)sulfamoyl)-4-cyclopropylbenzoic acid], for which the IC50 is < 1 nM. As for `N#Cc1cc(NS(=O)(=O)c2cc(C(=O)O)ccc2C2CC2)c(O[C@H]2C[C@H](C#N)C2)cc1Cl` [Example 55, 3-(N-(4-chloro-5-cyano-2-(trans-3-cyanocyclobutoxy)phenyl)sulfamoyl)-4-cyclopropylbenzoic acid], the IC50 is 1 to 5 nM. For `N#Cc1cc(NS(=O)(=O)c2cc(C(=O)O)ccc2C2CC2)c(OC2CCC23COC3)cc1Cl` (stereo not shown) [Example 29, 3-(N-(2-((2-oxaspiro[3.3]heptan-5-yl)oxy)-4-chloro-5-cyanophenyl)sulfamoyl)-4-cyclopropylbenzoic acid], the IC50 was < 1 nM. Then `CN1CC(COc2cc(Cl)c(C#N)cc2NS(=O)(=O)c2cc(C(=O)O)ccc2C2CC2)C1` [Example 38, 3-(N-(4-chloro-5-cyano-2-((1-methylazetidin-3-yl)methoxy)phenyl)sulfamoyl)-4-cyclopropylbenzoic acid], with > 5 nM; and `CC1CC(Oc2cc(Cl)c(C#N)cc2NS(=O)(=O)c2cc(C(=O)O)ccc2C2CC2)C1` (single isomer, unassigned) [Example 115, 3-(N-(4-chloro-5-cyano-2-(3-methylcyclobutoxy)phenyl)sulfamoyl)-4-cyclopropylbenzoic acid], with < 1 nM. Then `N#Cc1cc(Cl)c(OC2CCCC2)c(NS(=O)(=O)c2cc(C(=O)O)ccc2C2CC2)c1` [Example 19, 3-(N-(3-chloro-5-cyano-2-(cyclopentyloxy)phenyl)sulfamoyl)-4-cyclopropylbenzoic acid], with 1 to 5 nM.

Regarding `CC1(Oc2cc(Cl)c(C#N)cc2NS(=O)(=O)c2cc(C(=O)O)ccc2C2CC2)CCCC1` [Example 81, 3-(N-(4-chloro-5-cyano-2-((1-methylcyclopentyl)oxy)phenyl)sulfamoyl)-4-cyclopropylbenzoic acid], the IC50 was < 1 nM. As to `CO[C@H]1C[C@H](Oc2cc(Cl)c(C#N)cc2NS(=O)(=O)c2cc(C(=O)O)ccc2C2CC2)C1` [Example 95, 3-(N-(4-chloro-5-cyano-2-(trans-3-methoxycyclobutoxy)phenyl)sulfamoyl)-4-cyclopropylbenzoic acid], the IC50 is > 5 nM. Regarding `CC(Oc1cc(Cl)c(C#N)cc1NS(=O)(=O)c1cc(C(=O)O)ccc1C1CC1)C1CCC1` (stereo not shown) [Example 42, 3-(N-(4-chloro-5-cyano-2-(1-cyclobutylethoxy)phenyl)sulfamoyl)-4-cyclopropylbenzoic acid], the IC50 was < 1 nM. In the case of `CC1(COc2cc(Cl)c(C#N)cc2NS(=O)(=O)c2cc(C(=O)O)ccc2C2CC2)CCC1` [Example 27, 3-(N-(4-chloro-5-cyano-2-((1-methylcyclobutyl)methoxy)phenyl)sulfamoyl)-4-cyclopropylbenzoic acid] it was < 1 nM; in that of `N#Cc1cc(NS(=O)(=O)c2cc(C(=O)O)ccc2C2CC2)c(OC2CCC23CCC3)cc1Cl` (stereo not shown) [Example 77, 3-(N-(4-chloro-5-cyano-2-(spiro[3.3]heptan-1-yloxy)phenyl)sulfamoyl)-4-cyclopropylbenzoic acid], < 1 nM. In the case of `CC1(C)CC(COc2cc(Cl)c(C#N)cc2NS(=O)(=O)c2cc(C(=O)O)ccc2C2CC2)C1` [Example 75, 3-(N-(4-chloro-5-cyano-2-((3,3-dimethylcyclobutyl)methoxy)phenyl)sulfamoyl)-4-cyclopropylbenzoic acid] it was 1 to 5 nM; in that of `N#Cc1cc(NS(=O)(=O)c2cc(C(=O)O)c(F)cc2C2CC2)c(OC2CCCC2)cc1Cl` [Example 16, 5-(N-(4-chloro-5-cyano-2-(cyclopentyloxy)phenyl)sulfamoyl)-4-cyclopropyl-2-fluorobenzoic acid], < 1 nM.
